According to patent US9982045B2, “Anti-CDH6 antibody drug conjugates” (Novartis AG, priority 2014, dated 2018):

Assays:
[1] = test system: CDH6 expressing primary (patient derived) ovarian tumors; test: Patient-derived primary ovarian tumor xenograft mouse model (Example 18); assay type: in vivo, nude mice; details: 5 mg/kg i.v. Q14D
Description: Mice were enrolled in the study 48 days post implant with a mean tumor volume of 178 mm^3. […] All groups were dosed at 5 mg/kg.

[2] = test system: CDH6 expressing cell lines compared to non-expressing cell lines; test: In vitro cellular activity on panel of CDH6 expressing and non-expressing cell lines; details: OVCAR3 and OVCAR8-CDH6+ compared to OVCAR8; FIG. 12

In the case of “NOV0712: anti-CDH6 human IgG1 from HuCAL PLATINUM phage display; binds CDH6 EC5; sequence in Table 5”, the “Anti-tumor activity (tumor volume)” value [1] is reported as “no inhibitory effect upon tumor growth” and the “Cellular activity (inhibition of proliferation)” value [2] is reported as “No cellular activity was observed”.
